Each block holds one compound with its values, some of them ahead of it. Active and inactive are the calls of the source. No cut-off for these calls is given here.
Columns and labels:
K562 = assay: Antiproliferative activity against human K562 cells incubated for 48 hrs by MTS assay; assay type: functional, cell-based; settings: K562, 48 h
U-937 [1] = assay: Antiproliferative activity against human U-937 cells incubated for 48 hrs by MTS assay; assay type: functional, cell-based; settings: U-937, 48 h
U-266 = assay: Antiproliferative activity against human U-266 cells incubated for 48 hrs by MTS assay; assay type: functional, cell-based; settings: U-266, 48 h
OCI-AML2 [2] = assay: Antiproliferative activity against human OCI-AML2 cells incubated for 48 hrs by MTS assay; assay type: functional, cell-based; settings: OCI-AML2, 48 h
OCI-AML2 [3] = assay: Downregulation of IKZF1 in human OCI-AML2 cells incubated for 8 hrs by Western blotting analysis; assay type: functional, cell-based; settings: dose 5-40 µM
OCI-AML2 [4] = assay: Downregulation of CK1alpha in human OCI-AML2 cells incubated for 8 hrs by Western blotting analysis; assay type: functional, cell-based; settings: dose 5-40 µM
[5] = target: Eukaryotic peptide chain release factor GTP-binding subunit ERF3A (Homo sapiens) (UniProt P15170); assay: Induction of GSPT1 degradation in human U-937 cells at 10 uM incubated for 8 hrs by Western blotting analysis; assay type: cell-based
Eukaryotic peptide chain release factor GTP-binding subunit ERF3A (Homo sapiens), sequence (P15170 whole entry): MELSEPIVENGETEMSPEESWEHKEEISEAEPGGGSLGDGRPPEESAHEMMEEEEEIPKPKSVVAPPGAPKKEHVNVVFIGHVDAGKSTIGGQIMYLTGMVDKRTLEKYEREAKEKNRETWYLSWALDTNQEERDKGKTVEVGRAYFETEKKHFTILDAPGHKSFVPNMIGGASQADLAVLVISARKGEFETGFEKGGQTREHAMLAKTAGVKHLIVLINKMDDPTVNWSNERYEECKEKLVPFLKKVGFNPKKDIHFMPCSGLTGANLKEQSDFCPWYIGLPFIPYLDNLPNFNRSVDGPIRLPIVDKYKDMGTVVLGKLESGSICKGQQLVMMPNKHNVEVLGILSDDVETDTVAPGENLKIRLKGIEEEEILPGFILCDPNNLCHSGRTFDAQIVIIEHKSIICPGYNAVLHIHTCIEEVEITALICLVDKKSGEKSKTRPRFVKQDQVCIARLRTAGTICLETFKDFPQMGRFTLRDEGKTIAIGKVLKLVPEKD

U-937 [6] = assay: Downregulation of IKZF1 in human U-937 cells incubated for 8 hrs by Western blotting analysis; assay type: functional, cell-based; settings: dose 5-40 µM
U-937 [7] = assay: Downregulation of GSPT1 in human U-937 cells incubated for 8 hrs by Western blotting analysis; assay type: functional, cell-based; settings: dose 5-40 µM
U-937 [8] = assay: Downregulation of CK1alpha in human U-937 cells incubated for 8 hrs by Western blotting analysis; assay type: functional, cell-based; settings: dose 5-40 µM
OCI-AML2 [9] = assay: Downregulation of GSPT1 in human OCI-AML2 cells incubated for 8 hrs by Western blotting analysis; assay type: functional, cell-based; settings: dose 5-40 µM
[10] = target: Eukaryotic peptide chain release factor GTP-binding subunit ERF3A (Homo sapiens) (UniProt P15170); assay: Induction of GSPT1 degradation in human OCI-AML2 cells at 10 uM incubated for 8 hrs by Western blotting analysis; assay type: cell-based
OCI-AML2 [11] = assay: Downregulation of CK1alpha in human OCI-AML2 cells at high concentration incubated for 8 hrs by Western blotting analysis; assay type: functional, cell-based
OCI-AML2 [12] = assay: Downregulation of c-Myc level in human OCI-AML2 cells at 5 to 20 uM incubated for 24 hrs by Western blotting assay; assay type: functional, cell-based; settings: dose 5-20 µM
OCI-AML2 [13] = assay: Downregulation of IKZF1 in human OCI-AML2 cells at high concentration incubated for 8 hrs by Western blotting analysis; assay type: functional, cell-based
U-937 [14] = assay: Downregulation of c-Myc level in human U-937 cells at 5 to 20 uM incubated for 24 hrs by Western blotting assay; assay type: functional, cell-based; settings: dose 5-20 µM
[15] = target: T1, Protein cereblon/Eukaryotic peptide chain release factor GTP-binding subunit ERF3A (Homo sapiens) (UniProt Q96SW2+P15170); assay: Induction of CRBN to GSPT1 protein-protein interaction in human U-937 cells at 20 uM pretreated with MG132 for 1 hr followed by compound addition and measured after 8 hrs by immunoprecipitation assay; assay type: cell-based; settings: filed as activator
T1 sequence (P15170 whole entry, looked up): as the sequence (P15170 whole entry) above
T1 sequence (Q96SW2 whole entry, looked up): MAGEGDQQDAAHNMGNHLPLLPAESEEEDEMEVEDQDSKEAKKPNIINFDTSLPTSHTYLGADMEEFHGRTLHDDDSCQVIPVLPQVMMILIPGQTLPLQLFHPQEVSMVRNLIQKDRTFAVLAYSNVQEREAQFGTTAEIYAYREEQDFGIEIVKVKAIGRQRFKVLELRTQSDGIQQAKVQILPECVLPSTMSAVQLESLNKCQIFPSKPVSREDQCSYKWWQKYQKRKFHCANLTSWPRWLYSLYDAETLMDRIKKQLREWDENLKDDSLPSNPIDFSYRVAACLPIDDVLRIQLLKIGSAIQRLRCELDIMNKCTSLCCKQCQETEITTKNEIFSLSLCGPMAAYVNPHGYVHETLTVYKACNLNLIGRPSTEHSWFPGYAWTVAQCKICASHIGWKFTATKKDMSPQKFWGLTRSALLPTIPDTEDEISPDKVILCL

OCI-AML2 [16] = assay: Induction of apoptosis in human OCI-AML2 cells assessed as increase in number of apoptotic cells at 5 to 20 uM incubated for 48 hrs by Annexin V-FITC/PI staining based flow cytometry analysis; assay type: functional, cell-based; settings: dose 5-20 µM
OCI-AML2 [17] = assay: Upregulation of caspase 9 level in human OCI-AML2 cells at 5 to 20 uM incubated for 24 hrs by Western blotting assay; assay type: functional, cell-based; settings: dose 5-20 µM
U-937 [18] = assay: Induction of cell cycle arrest in human U-937 cells assessed as decrease in M phase cells at 5 to 20 uM incubated for 24 hrs by propidium iodide staining based flow cytometry analysis; assay type: functional; settings: dose 5-20 µM
OCI-AML2 [19] = assay: Upregulation of PARP cleavage in human OCI-AML2 cells at 5 to 20 uM incubated for 24 hrs by Western blotting assay; assay type: functional, cell-based; settings: dose 5-20 µM
OCI-AML2 [20] = assay: Upregulation of p21 level in human OCI-AML2 cells at 5 to 20 uM incubated for 24 hrs by Western blotting assay; assay type: functional, cell-based; settings: dose 5-20 µM
U-937 [21] = assay: Downregulation of CK1alpha in human U-937 cells at high concentration incubated for 8 hrs by Western blotting analysis; assay type: functional, cell-based
[22] = target: Eukaryotic peptide chain release factor GTP-binding subunit ERF3A (Homo sapiens) (UniProt P15170); assay: Induction of GSPT1 degradation in human U-937 cells at 20 to 40 uM pretreated with MLN4924 followed by compound addition and measured after 8 hrs by Western blotting analysis; assay type: cell-based; settings: dose 20-40 µM
U-937 [23] = assay: Upregulation of PARP cleavage in human U-937 cells at 5 to 20 uM incubated for 24 hrs by Western blotting assay; assay type: functional, cell-based; settings: dose 5-20 µM
[24] = target: T1, Protein cereblon/Eukaryotic peptide chain release factor GTP-binding subunit ERF3A (Homo sapiens); assay: Binding affinity to CRBN/GSPT1 in human U-937 cells assessed as increase in protein stabilization incubated for 6 hrs by CETSA; assay type: cell-based; settings: filed as activator
OCI-AML2 [25] = assay: Antiproliferative activity against GSPT1 knockout human OCI-AML2 cells incubated for 48 hrs by MTS assay; assay type: functional, cell-based
U-937 [26] = assay: Induction of apoptosis in human U-937 cells assessed as increase in number of apoptotic cells at 5 to 20 uM incubated for 48 hrs by Annexin V-FITC/PI staining based flow cytometry analysis; assay type: functional, cell-based; settings: dose 5-20 µM
U-937 [27] = assay: Upregulation of caspase 9 level in human U-937 cells at 5 to 20 uM incubated for 24 hrs by Western blotting assay; assay type: functional, cell-based; settings: dose 5-20 µM
[28] = target: Eukaryotic peptide chain release factor GTP-binding subunit ERF3A (Homo sapiens) (UniProt P15170); assay: Induction of GSPT1 degradation in human U-937 cells with CHX pretreatment by Western blotting analysis; assay type: cell-based; settings: dose 20-40 µM
U-937 [29] = assay: Downregulation of GSPT1 in human U-937 cells at high concentration incubated for 8 hrs by Western blotting analysis; assay type: functional, cell-based
U-937 [30] = assay: Downregulation of IKZF1 in human U-937 cells at high concentration incubated for 8 hrs by Western blotting analysis; assay type: functional, cell-based
OCI-AML2 [31] = assay: Downregulation of GSPT1 in human OCI-AML2 cells at high concentration incubated for 8 hrs by Western blotting analysis; assay type: functional, cell-based
[32] = target: Protein cereblon (Homo sapiens) (UniProt Q96SW2); assay: Binding affinity to recombinant CRBN (unknown origin) by SPR assay
Protein cereblon (Homo sapiens), sequence (Q96SW2 whole entry): as the sequence (Q96SW2 whole entry, looked up) above

U-937 [33] = assay: Antiproliferative activity against CRBN knockdown human U-937 cells incubated for 48 hrs by MTS assay; assay type: functional, cell-based
[34] = target: Eukaryotic peptide chain release factor GTP-binding subunit ERF3A (Homo sapiens) (UniProt P15170); assay: Induction of GSPT1 degradation in human U-937 cells at 20 to 40 uM pretreated with MG132 for 1 hr followed by compound addition and measured after 8 hrs by Western blotting analysis; assay type: cell-based; settings: dose 20-40 µM
[35] = target: Eukaryotic peptide chain release factor GTP-binding subunit ERF3A (Homo sapiens) (UniProt P15170); assay: Induction of GSPT1 degradation in human OCI-AML2 cells at 20 to 40 uM pretreated with MLN4924 followed by compound addition and measured after 8 hrs by Western blotting analysis; assay type: cell-based; settings: dose 20-40 µM
OCI-AML2 [36] = assay: Induction of cell cycle arrest in human OCI-AML2 cells assessed as decrease in M phase cells at 5 to 20 uM incubated for 24 hrs by propidium iodide staining based flow cytometry analysis; assay type: functional; settings: dose 5-20 µM
U-937 [37] = assay: Induction of cell cycle arrest in human U-937 cells assessed as increase in G1 phase cells at 5 to 20 uM incubated for 24 hrs by propidium iodide staining based flow cytometry analysis; assay type: functional; settings: dose 5-20 µM
[38] = target: Eukaryotic peptide chain release factor GTP-binding subunit ERF3A (Homo sapiens) (UniProt P15170); assay: Induction of GSPT1 degradation in human HEK293FT cells at 20 to 40 uM pretreated with MLN4924 for 1 hr followed by compound addition and measured after 8 hrs by Western blotting analysis; assay type: cell-based; settings: dose 20-40 µM
OCI-AML2 [39] = assay: Induction of cell cycle arrest in human OCI-AML2 cells assessed as increase in G1 phase cells at 5 to 20 uM incubated for 24 hrs by propidium iodide staining based flow cytometry analysis; assay type: functional; settings: dose 5-20 µM
U-937 [40] = assay: Upregulation of p21 level in human U-937 cells at 5 to 20 uM incubated for 24 hrs by Western blotting assay; assay type: functional, cell-based; settings: dose 5-20 µM

Structure (SMILES): Cc1nc2c(C)cccc2cc1C(=O)N/N=C/c1cccc(O)c1
Activity (OCI-AML2 [3]): Dose-Dependent Effect
Activity (OCI-AML2 [4]): Dose-Dependent Effect
Activity [5]: Active
IC50 (K562): 19.4 µM
Activity (U-937 [6]): Dose-Dependent Effect
IC50 (U-937 [1]): 22.6 µM
Activity (U-937 [7]): Dose-Dependent Effect
Activity (U-937 [8]): Dose-Dependent Effect
IC50 (U-266): 17.7 µM
Activity (OCI-AML2 [9]): Dose-Dependent Effect
IC50 (OCI-AML2 [2]): 17.2 µM
Activity [10]: Active

Structure (SMILES): Cc1nc2c(C)cccc2cc1C(=O)N/N=C/c1ccccc1
IC50 (K562): 37.6 µM
IC50 (U-937 [1]): 16.4 µM
IC50 (U-266): 10.1 µM
IC50 (OCI-AML2 [2]): 11 µM

Structure (SMILES): Cc1nc2c(C)cccc2cc1C(=O)N/N=C/c1cccc([N+](=O)[O-])c1
IC50 (K562): 12.8 µM
IC50 (U-937 [1]): 9.9 µM
IC50 (U-266): 7.13 µM
IC50 (OCI-AML2 [2]): 2.68 µM

Structure (SMILES): COc1ccc2ccccc2c1/C=N/NC(=O)c1cc2cccc(C)c2nc1C
IC50 (K562): > 40 µM
IC50 (U-937 [1]): > 40 µM
IC50 (U-266): > 40 µM
IC50 (OCI-AML2 [2]): > 40 µM

Structure (SMILES): Cc1ccc2nc(C)c(C(=O)N/N=C/c3cccnc3)cc2c1
IC50 (K562): > 40 µM
IC50 (U-937 [1]): > 40 µM
IC50 (U-266): > 40 µM
IC50 (OCI-AML2 [2]): > 40 µM

Structure (SMILES): Cc1nc2c(C)cccc2cc1C(=O)N/N=C/c1ccccc1O
Activity (OCI-AML2 [11]): Active
Activity (OCI-AML2 [12]): Active
Activity (OCI-AML2 [13]): Active
Activity (U-937 [14]): Active
Activity [15]: Active
Activity (OCI-AML2 [16]): Active
Activity (OCI-AML2 [17]): Active
Activity (U-937 [18]): Active
Activity (OCI-AML2 [19]): Active
IC50 (K562): 16.7 µM
Activity (OCI-AML2 [20]): Active
Activity (U-937 [21]): Active
Activity [22]: inactive
Activity (U-937 [23]): Active
IC50 (U-937 [1]): 4.49 µM
Activity [24]: Active
Activity (OCI-AML2 [25]): inactive
IC50 (U-266): 3.8 µM
Activity (U-937 [26]): Active
Activity (U-937 [27]): Active
Activity [28]: Dose-Dependent Effect
Activity (U-937 [29]): Active
Activity (U-937 [30]): Active
Activity (OCI-AML2 [31]): Active
Activity [32]: Active
Activity (U-937 [33]): inactive
Activity [34]: inactive
IC50 (OCI-AML2 [2]): 2.64 µM
Activity [35]: inactive
Activity (OCI-AML2 [36]): Active
Activity (U-937 [37]): Active
Activity [38]: inactive
Activity (OCI-AML2 [39]): Active
Activity (U-937 [40]): Active

Continued, in another order:

IC50 (K562): > 40 µM
IC50 (U-937 [1]): > 40 µM
IC50 (OCI-AML2 [2]): > 40 µM
Structure (SMILES): Cc1ccc2nc(C)c(C(=O)N/N=C/c3cccc(Cl)c3)cc2c1
IC50 (U-266): > 40 µM

IC50 (K562): > 40 µM
IC50 (U-937 [1]): > 40 µM
IC50 (OCI-AML2 [2]): > 40 µM
Structure (SMILES): Cc1ccc2nc(C)c(C(=O)N/N=C/c3cccc([N+](=O)[O-])c3)cc2c1
IC50 (U-266): > 40 µM

IC50 (K562): > 40 µM
IC50 (U-937 [1]): > 40 µM
IC50 (OCI-AML2 [2]): > 40 µM
Structure (SMILES): Cc1nc2ccccc2cc1C(=O)N/N=C/c1cccc(Cl)c1
IC50 (U-266): > 40 µM

From ChEMBL document CHEMBL5523720, “Identification of novel GSPT1 degraders by virtual screening and bioassay” (Eur J Med Chem, 2024)
